“Also recorded” adds a separate entry of the source.
Columns and labels:
diabetic rats [1] = assay: Brain atrophy in streptozotocin-diabetic rats, insulin infused into brain lateral ventricles; type: in vivo, rat; settings: 0.3 U insulin per kg body weight per day into brain lateral ventricles for 10 weeks; D+Insulin vs D+aCSF P<0.02; N=7 rats per group
Procedure: (§1) Adult rats were randomly assigned to treatment groups, some of which were treated with streptozotocin to induce diabetes. Alzet osmotic minipumps (pump rate, 0.5 μl per hour) were connected to catheters that delivered either artificial cerebrospinal fluid (D+aCSF) or 0.3 U insulin per kg body weight per day (D+Insulin) into the brain lateral ventricles of diabetic rats for 10 weeks. Pumps were replaced every two weeks. Brains were removed and the wet weight determined. The brains were homogenized in a buffer, and aliquots were taken to determine dry weight. The water weight was calculated as the difference between brain wet and dry weights. The results are shown in FIGS. 1A-1C, wherein the values are means±SEM (N=7 rats per group). Newman-Keuls posthoc test of means was calculated using CSS Statistica software package.

diabetic rats [2] = assay: Serum glucose and body weight in the same experiment at 10 weeks; type: in vivo, rat; settings: 0.3 U insulin per kg per day intracerebroventricular
Procedure: as §1
In the same experiment described in FIGS. 1A-1C, rats were weighed and tail blood was withdrawn for glucose assay prior to euthanasia at 10 weeks. Values are means±SEM. Newman-Keuls posthoc test of means was calculated using CSS Statistica software package.

patients = settings: insulin infusion, glucose levels kept constant in patients; cited from earlier work

insulin
brain atrophy, loss of brain wet and dry weights (diabetic rats [1]): prevented brain atrophy; also recorded: completely normalized brain weight
loss of body weight (diabetic rats [2]; D+Insulin vs D+aCSF P<0.02): partially prevented loss of body weights
hyperglycemia (serum glucose levels) (diabetic rats [2]; D+Insulin vs D+aCSF nonsignificant): no effect on hyperglycemia
number of different genes whose expression is regulated in a muscle biopsy (patients): over 700

From US20120195959A1, “METHOD FOR TREATING DISEASE OR DISORDER OF ADULT CENTRAL NERVOUS SYSTEM ASSOCIATED WITH TISSUE SHRINKAGE OR ATROPHY BY ADMINISTRATION OF INSULIN” (priority 2005, published 2012)
